Patent publication US8404696B2, “Quinazoline-2,4-dione derivative, and medical compositions for the prophylaxis and treatment of cranial nerve disease containing the same” (Shin Poong Pharmaceutical Co., Ltd., priority 2008, dated 2013)
≈ marks a conversion by molar mass, not a printed value.

How the values were obtained:
[1] = test system: mixed culture of nerve cells-glial cells; test: Protecting effect on NMDA-induced nerve cell death (LDH release); type: cell-based, ICR mouse; conditions: 100 μM NMDA, LDH release after 24 hours
Method: Isolation and culture of nerve cells were performed by Choi's method (Choi, D. W. 1985, Neurosci. Lett., 58: 293-297). That is, the cortex was isolated in fetus ICR mouse that was 14 days pregnant, and then single cells were obtained from the tissue using pipette. The cells were aliquoted into 2×10^5/well density in a 24-well plate (Falcon) in which glial cells of cerebral cortex had been cultured in an incubator maintained at 37° C. with 5% CO2 for over 3 weeks. The culture medium was supplemented with MEM (minimum essential medium, Sigma), 2 mM glutamine, 21 mM glucose, 26.5 mM bicarbonate, 10% fetal bovine serum (FBS). In 3-5 days after aliquot, 10 μM Ara-C (cytosine arabinoside) was treated to suppress proliferation of neuroglia. And it was treated with 100 μM NMDA and 1 μg/mL or 2 μg/mL of each sample (compound) to induce the death of nerve cells due to excitable toxicity for 20 minutes, in 12-15 days after aliquot. Because of nerve cell death, lactate dehydrogenase (LDH) accumulated in proportion to the number of dead cells. In 24 hours after drug treatment, the amount of dehydrogenase (LDH) released to outside of cells was measured by using an […] measurement kit (CytoTox 96, Promega). After the reaction was completed, the change of absorbance depending on the amount of LDH was measured by using a microplate spectrophotometer.

mouse brain cells = test: Inhibitory effect on ROS production in brain cells (DCF-DA, NMDA-induced); type: cell-based; conditions: dose suppressing 50% of production of reactive oxygen compared to control, mouse brain cells; for IC50: 24 h, read-out: ROS inhibitory effect ID50
Method: Oxidative stress was measured to test inhibitory effects on the production of reactive oxygen species (ROS) by using DCF-DA, which is a fluorescent probe. Brain cells were obtained from brain cortex of mouse to prepare cell solution with 2×10^6 cells/ml. Each brain cell was treated with 11 μM of DCF-DA followed by reaction in 37° C., 5% CO2 incubator for an hour. After washing twice, Compound 3 was treated with a concentration of 125 μg/ml and 250 μg/ml. At the same time, 300 μM of NMDA was treated and it was incubated in 37° C., 5% CO2 incubator for 24 hours.
(§1) ROS inhibitory effect of compounds was represented to the dose suppressing 50% of production of reactive oxygen compared to control. […] The activity of superoxide dismutase (SOD) was measured by using a kit acquired in Sigma.

[2] = test system: pentylentetrazole (PTZ)-induced convulsion; test: Anti-convulsant effect, pentylentetrazole (PTZ) test; type: in vivo; conditions: 10 mg/kg intraperitoneally, PTZ 80 mg/kg subcutaneously; for mortality rate / Induction percentage of convulsion: (animals/total); for mortality rate: negative control 70(17/23); for Induction percentage of convulsion: negative control 100(23/23); for Initiation time of convulsion: negative control 5.0 ± 0.7; for Duration of convulsion: negative control 46.7 ± 3.3
Method: An experiment was performed by the method of Ali et al. (Ali, A. et al. 2006, Pharmacological Reports, 58: 242-245). A 10 mg/kg dose of compound was intraperitoneally administered to identify the anti-convulsant effect and the effect was observed (Table 8). Researching the process of activity was performed by the Anti-epileptic Drug Development Program (ADD) of NIH during development of the anti-convulsant drug. One of the assessed items of anti-convulsant activity in the first step of this program is the pentylentetrazole (PTZ) test. […] After 10 mg/kg of the testing drug was administered, assessment was performed by estimating the initiation time of convulsion, duration until convulsion completely disappeared and mortality rate. It was assessed as having an anti-convulsant effect when a single episode of clonic spasm was not shown over 5 seconds on at least one of the 4 laboratory animals after PTZ administration.

thoracic aorta of rats = test: Relaxing effect on thoracic aorta contracted by phenylephrine (organ bath); set-up: species or system rats of SD species; conditions: Rattus norvegicus; 67 μg/mL; phenylephrine 0.5 μM; mean n = 3; read-out: Relaxation percentage
Text: After male rats of SD species (250-300 g) were anesthetized by inhalation of ether, their thoracic aortas were extracted and put into a Krebs buffer (mM; NaCl 118, NaHCO3 27.3, KCl 4.8, MgSO4 1.2, KH2PO4 1.0, CaCl2 1.25, glucose 11.1). 2 mm of aortic ring was made under dissecting microscope and cultured in an organ bath to measure the tension of blood vessels. The organ bath was filled with Krebs buffer and saturated with 95% O2, 5% CO2 to maintain dissolved oxygen and physiological pH. Changing of tension was measured by a tension meter (Hugo-sachs, model K30) and recorded by physiological recorder (Coulbourn polygraph). The length of the blood vessels was increased step by step to make 1.0 g of basal tension for 90 minutes. The equilibrated blood vessel was contracted by phenylephrine (0.5 μM). When the contraction furrow reached equilibrium, compounds were added, followed by observation of relaxation response.

[3] = test system: superoxide dismutase (SOD); test: Increase of superoxide dismutase (SOD) activity in mouse brain cells; type: cell-based; conditions: 100 μg/ml
Method: as §1

Row | SMILES | Inhibitory effect of cell death by NMDA-induced excitable neurotoxicity ([1]; 1 μg/ml compound) | Inhibitory effect of cell death by NMDA-induced excitable neurotoxicity ([1]; 2 μg/ml compound) | IC50 (mouse brain cells) | mortality rate [2] | Induction percentage of convulsion [2] | Initiation time of convulsion [2] | Duration of convulsion [2] | inhibition at 67 µg/mL (thoracic aorta of rats) | ROS inhibitory effect ID50 (mouse brain cells) | Increase of SOD activity, compared to control [3]
1 | O=c1[nH]c2ccccc2c(=O)n1CCCCNCCCn1c(=O)[nH]c2ccccc2c1=O [Compound 7, 3-{4-[3-(2,4-dioxo-1,4-dihydro-2H-quinazolin-3-yl)propylamino]butyl}-1H-quinazoline-2,4-dione] | 26.0% | 39.7% | 17.7 ± 17.3 µg/mL (≈ 40.6 µM) | 67(4/6) % | 100(6/6) % | 3.1 ± 0.3 min | 42.9 ± 8.7 min | 56.8% |  | 
2 | CCOC(=O)N(CCCCN(CCCn1c(=O)[nH]c2ccccc2c1=O)C(C)=O)CCCn1c(=O)[nH]c2ccccc2c1=O [Compound 14, (4-{acetyl-[3-(2,4-dioxo-1,4-dihydro-2H-quinazolin-3-yl)propyl]amino}butyl)-[3-(2,4-dioxo-1,4-dihydro-2H-quinazolin-3-yl)propyl]carbanic Acid ethyl ester] | 18.9% | 26.9% |  | 0(0/6) % | 100(6/6) % | 8.5 ± 1.8 min | 2.9 ± 2.1 min |  | 90.1 ± 12.2 µg/mL | 2.7 ± 1.0
3 | CC(=O)N(CCCCn1c(=O)[nH]c2ccccc2c1=O)CCCn1c(=O)[nH]c2ccccc2c1=O [Compound 22, N-[4-(2,4-dioxo-1,4-dihydro-2H-quinazolin-3-yl)butyl]-N-[3-(2,4-dioxo-1,4-dihydro-2H-quinazolin-3-yl)propyl]acetamide] | 17.0% | 14.0% | 172 ± 23.6 µg/mL (≈ 361 µM) | 0(0/6) % | 83(5/6) % | 15.2 ± 9.0 min | 7.0 ± 3.2 min |  |  | 3.7 ± 0.8
4 | O=c1[nH]c2ccccc2c(=O)n1CCCNCCCNCCCn1c(=O)[nH]c2ccccc2c1=O [Compound 24, 3-(3-{3-[3-(2,4-dioxo-1,4-dihydro-2H-quinazolin-3-yl)propylamino]propylamino}propyl)-1H-quinazoline-2,4dione] | 27.4% | 30.3% | 122 ± 32.4 µg/mL (≈ 256 µM) | 50(3/3) % | 100(6/6) % | 6.1 ± 1.7 min | 35.7 ± 84 min |  |  | 6.9 ± 3.8
5 | Cn1c(=O)n(CCCNCCCCNCCCn2c(=O)c3ccccc3n(C)c2=O)c(=O)c2ccccc21 [Compound 27, 1-methyl-3-(3-{4-[3-(1-methyl-2,4-dioxo-1,4-dihydro-2H-quinazolin-3-yl)propylamino]butylamino}propyl)-1H-quinazoline-2,4-dione] | 33.7% | 36.0% | 21.9 ± 16.1 µg/mL (≈ 42.1 µM) | 50(3/6) % | 100(6/6) % | 8.4 ± 2.6 min | 35.8 ± 9.8 min |  |  | 2.4 ± 7.8
6 | O=C1c2ccccc2C(=O)N1CCCNCCCCNCCCn1c(=O)[nH]c2ccccc2c1=O [Compound 28, 3-(3-{4-[3-(1,3-dioxo-1,3-dihydro-isoindole-2-yl)propylamino]butylamino}propyl)-1H-quinazoline-2,4-dione] | 23.1% | 22.4% | 30.9 ± 13.7 µg/mL (≈ 64.7 µM) | 0(0/6) % | 100(6/6) % | 4.8 ± 2.2 min | 26.9 ± 6.5 min | 8.3% |  | 
7 | O=c1[nH]c2ccccc2c(=O)n1CCCNCCNCCCn1c(=O)[nH]c2ccccc2c1=O [Compound 29, 3-(3-{2-[3-(2,4-dioxo-1,4-dihydro-2H-quinazolin-3-yl)propylamino]ethylamino}propyl)-1H-quinazoline-2,4-dione] | 8.5% | 29.5% | 10.1 ± 17.3 µg/mL (≈ 21.7 µM) | 17(1/6) % | 83(5/6) % | 18.2 ± 9.1 min | 30.3 ± 11.1 min |  |  | 3.0 ± 1.1
8 | CCCCCCn1c(=O)n(CCCNCCCCNCCCn2c(=O)c3ccccc3n(CCCCCC)c2=O)c(=O)c2ccccc21 [Compound 33, 1-hexyl-3-(3-{4-[3-(1-hexyl-2,4-dioxo-1,4-dihydro-2H-quinazolin-3-yl)propylamino]butylamino}propyl)-1H-quinazoline-2,4-dione] | 14.6% | 65.1% | 173 ± 19.7 µg/mL (≈ 261 µM) | 83(5/6) % | 100(6/6) % | 16.1 ± 2.2 min | 36.6 ± 7.6 min | 38.5% |  | 
